For data set [1], the system named is Gaeumannomyces Graminis. Nature of the data set: Gaeumannomyces graminis / liquid culture (take-all of cereals). The format is cell-based. The note with it: PDB potato dextrose broth, 24° C., 4-5 days after application, read-out: disease control (inhibition of growth, photometrically). Put shortly:
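Mycelial fragments from cryogenic storage mixed into potato dextrose broth and added to test compound in DMSO. Incubated at 24° C; growth inhibition read photometrically 4-5 days after application.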

Data set [2] has as its system Plasmopara Viticola. As to the kind of experiment: whole plant or invertebrate. Conditions: foliar, read-out: disease control. The format is in vivo.
The subject of data set [3] is Monographella Nivalis(Microdochium Nivale). Nature of the data set: Monographella nivalis (Microdochium nivale) / liquid culture (foot rot cereals). The note with it: PDB potato dextrose broth, 24° C., 4-5 days after application, read-out: disease control (inhibition of growth, photometrically). Format: cell-based. The method in brief:
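Conidia from cryogenic storage mixed into potato dextrose broth, added to compound pre-dispensed from DMSO solution. Incubated at 24° C.; growth inhibition read photometrically 4-5 days after application.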

The test system of data set [4] is Phytophthora Infestans. As to the kind of experiment: whole plant or invertebrate. The format is in vivo. Conditions: in Solanum lycopersicum, foliar, read-out: disease control.
Data set [5] concerns Pythium Ultimum. Nature of the data set: Pythium ultimum / liquid culture (seedling damping off). Conditions: Globisporangium ultimum, potato dextrose broth, 24° C., 2-3 days after application, read-out: disease control (inhibition of growth, photometrically). The format is cell-based.
Data set [6] concerns Mycosphaerella Graminicola(Septoria Tritici). Nature of the data set: Mycosphaerella graminicola (Septoria tritici) / liquid culture (Septoria blotch). Format: cell-based. Conditions: Zymoseptoria tritici, PDB potato dextrose broth, 24° C., 4-5 days after application, read-out: disease control (inhibition of growth, photometrically). The method in brief: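 Cryostored conidia mixed into potato dextrose broth and added to compound dispensed from DMSO solution. Incubation at 24 °C; growth inhibition read photometrically 4-5 days after application.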

Data set [7] deals with Sclerotinia Sclerotiorum. Nature of the data set: Sclerotinia sclerotiorum / liquid culture (cottony rot). Format: cell-based. The note with it: PDB potato dextrose broth, 24° C., 3-4 days after application, read-out: disease control (inhibition of growth, visually). The method in brief: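 Mycelial fragments from fresh liquid culture in potato dextrose broth added to test compounds in DMSO. Incubated at 24° C; growth inhibition scored visually 3-4 days after application.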

The test system of data set [8] is Phaeosphaeria Nodorum (Septoria Nodorum). Nature of the data set: Phaeosphaeria nodorum (Septoria nodorum) / wheat / leaf disc preventative (glume blotch). The format is in vivo. The note with it: Parastagonospora nodorum, foliar, wheat leaf segments cv Kanzler, inoculated 2 days after application, assessed 5-7 days after application, read-out: disease control. The protocol: 5 Phaeosphaeria Nodorum (Septoria Nodorum)/Wheat/Leaf Disc Preventative (Glume Blotch) Wheat leaf segments cv Kanzler were placed on agar in a 24-well plate and sprayed with formulated test compound diluted in water. The leaf disks were inoculated with a spore suspension of the fungus 2 days after application. The inoculated test leaf disks were incubated at 20° C. and 75% relative humidity under a light regime of 12/12 h (light/dark) in a climate cabinet and the activity of a compound was assessed as percent disease control compared to untreated when an appropriate level of disease damage appears in untreated check leaf disks (5-7 days after application).

Data set [9] has as its system Glomerella Lagenarium(Colletotrichum Ladenarium). As to the kind of experiment: Glomerella lagenarium (Colletotrichum lagenarium) / liquid culture (anthracnose). The format is cell-based. The note with it: PDB potato dextrose broth, 24° C., 3-4 days after application, read-out: disease control (inhibition of growth, photometrically). The method in brief: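 Cryostored conidia were suspended in potato dextrose broth and added to compound in DMSO. Cultures were incubated at 24 °C. Growth inhibition was measured photometrically 3–4 days after application.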

Data set [10] concerns Mycosphaerella Arachidis(Cercospora Arachidicola). Nature of the data set: Mycosphaerella arachidis (Cercospora arachidicola) / liquid culture (early leaf spot). The format is cell-based. The note with it: PDB potato dextrose broth, 24° C., 4-5 days after application, read-out: disease control (inhibition of growth, photometrically). The method in brief:
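Cryo-stored conidia in potato dextrose broth were added to compound in DMSO in microtiter plates. After incubation at 24 °C, growth inhibition was measured photometrically 4-5 days after application.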

Data set [11] deals with Fusarium Culmorum. Nature of the data set: microbe, parasite or virus in culture. Format: cell-based. The note with it: read-out: disease control (inhibition of growth, photometrically).
The test system of data set [12] is Thanatephorus Cucumeris(Rhizoctonia Solani). As to the kind of experiment: Thanatephorus cucumeris (Rhizoctonia solani) / liquid culture (foot rot, damping-off). The format is cell-based. The note with it: PDB potato dextrose broth, 24° C., 3-4 days after application, read-out: disease control (inhibition of growth, photometrically). Put shortly:
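Mycelial fragments in potato dextrose broth exposed to compound (DMSO solution) at 200 ppm. Incubation at 24° C.; growth inhibition measured photometrically 3-4 days after application.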

In data set [13] the test system is Botryotinia Fuckeliana(Botrytis Cinerea). As to the kind of experiment: Botryotinia fuckeliana (Botrytis cinerea) / liquid culture (gray mould). Format: cell-based. Conditions: Vogels broth, 24° C., 3-4 days after application, read-out: disease control (inhibition of growth, photometrically). The protocol: 9 Botryotinia Fuckeliana(Botrytis Cinerea)/Liquid Culture (Gray Mould) Conidia of the fungus from cryogenic storage were directly mixed into nutrient broth (Vogels broth). After placing a DMSO solution of test compound into a 96-well microtiter plate, the nutrient broth containing the fungal spores was added. The test plates were incubated at 24° C. and the inhibition of growth was determined photometrically 3-4 days after application.

The test system of data set [14] is Puccinia Recondita f. sp. Tritici. Nature of the data set: Puccinia recondita f. sp. tritici / wheat / leaf disc preventative (brown rust). Format: in vivo. Conditions: foliar, wheat leaf segments cv Kanzler, inoculated 1 day after application, assessed 7-9 days after application, read-out: disease control. The protocol: 3 Puccinia Recondita f. sp. Tritici/Wheat/Leaf Disc Preventative (Brown Rust) Wheat leaf segments cultivated variety (cv) Kanzler were placed on agar in 24-well plates and sprayed with formulated test compound diluted in water. The leaf disks were inoculated with a spore suspension of the fungus 1 day after application. The inoculated leaf segments were incubated at 19° C. and 75% relative humidity under a light regime of 12/12 h (light/dark) in a climate cabinet and the activity of a compound was assessed as percent disease control compared to untreated when an appropriate level of disease damage appears in untreated check leaf segments (7-9 days after application).

Bounds are passed on as bounds.

For `OB1OCc2cc(F)c(-c3ccc(Cl)nc3)cc21` [Compound 13, 2-chloro-5-(5-fluoro-1-hydroxy-3H-2,1-benzoxaborol-6-yl)pyridine], the melting point was in the range of 213 to 215 °C. For the same compound, the inhibition at 20 ppm in data set [1] is at least 80%. In addition, the pest or weed control at 200 ppm in data set [2] was at least 80%. In addition, the inhibition at 20 ppm in data set [3] was at least 80%. For the same compound, the pest or weed control at 200 ppm in data set [4] was at least 80%. Moreover, the inhibition at 20 ppm in data set [5] is at least 80%.
`OB1OCc2cc(Cl)c(-c3nnco3)cc21` [Compound 94] came in with a melting point of 202 to 204 °C. Also, in data set [1], the inhibition at 20 ppm is at least 80%. In addition, in data set [6], the inhibition at 20 ppm was at least 80%. Besides, the inhibition at 20 ppm in [7] was at least 80%. The pest or weed control at 200 ppm in data set [4] is at least 80%. In addition, the inhibition at 20 ppm in [5] is at least 80%. The pest or weed control at 200 ppm in data set [8] was at least 80%. Besides, in data set [9], the inhibition at 20 ppm was at least 80%. Further, in data set [10], the inhibition at 20 ppm is at least 80%.
The compound `O/N=C/c1ccc(-c2cc3c(cc2F)COB3O)o1` [Compound 27] yielded a melting point of 200 to 220 °C. Further, in data set [2], the pest or weed control at 200 ppm was at least 80%. Further, the inhibition at 20 ppm in data set [3] was at least 80%. In data set [4], the pest or weed control at 200 ppm is at least 80%. Also, in data set [5], the inhibition at 20 ppm is at least 80%. The inhibition at 20 ppm in [9] is at least 80%. Besides, the inhibition at 20 ppm in [10] was at least 80%.
On to `OB1OCc2cc(F)c(-c3cnoc3)cc21` [Compound 11], for which the melting point lay in the range of 230 to 232 °C. Moreover, the inhibition at 20 ppm in [1] is at least 80%. For the same compound, the inhibition at 20 ppm in data set [6] is at least 80%. The inhibition at 20 ppm in data set [7] was at least 80%. Besides, the inhibition at 20 ppm in data set [3] is at least 80%. Further, the pest or weed control at 200 ppm in data set [4] was at least 80%. For the same compound, the inhibition at 20 ppm in data set [5] is at least 80%. The inhibition at 20 ppm in data set [11] was at least 80%. Further, the pest or weed control at 200 ppm in data set [8] is at least 80%. Moreover, the inhibition at 20 ppm in data set [10] is at least 80%.
`OB1OCc2cc(F)c(-c3ncno3)cc21` [Compound 29] registered a melting point of 204 to 206 °C. In data set [1], the inhibition at 20 ppm was at least 80%. Besides, in data set [12], the inhibition at 20 ppm was at least 80%. For the same compound, the inhibition at 20 ppm in data set [6] was at least 80%. Besides, the inhibition at 20 ppm in data set [7] is at least 80%. For the same compound, in [3], the inhibition at 20 ppm is at least 80%. Further, the pest or weed control at 200 ppm in data set [4] was at least 80%. The inhibition at 20 ppm in data set [5] is at least 80%. The inhibition at 20 ppm in data set [13] was at least 80%. For the same compound, the inhibition at 20 ppm in data set [11] was at least 80%. Also, the pest or weed control at 200 ppm in data set [8] is at least 80%. The inhibition at 20 ppm in data set [9] is at least 80%. Moreover, the inhibition at 20 ppm in data set [10] was at least 80%.
With `N#Cc1cscc1-c1cc2c(cc1Cl)COB2O` [Compound 42], the inhibition at 20 ppm in [1], in data set [6], in data set [7], in data set [3], in data set [5] and in data set [11] was at least 80% throughout. The inhibition at 20 ppm in [9] and in data set [10] was at least 80% each time. For the same compound, the pest or weed control at 200 ppm in [2], in data set [4] and in data set [8] was at least 80% in each case.
With `Cc1csc(-c2cc3c(cc2Cl)COB3O)n1` [Compound 15], the inhibition at 20 ppm in data set [1], in data set [12], in data set [6], in [7], in data set [3] and in [5] was at least 80% in each case. Moreover, the inhibition at 20 ppm in data set [11], in [9] and in data set [10] was at least 80% throughout. In addition, the pest or weed control at 200 ppm in data set [2] and in [4] was at least 80% throughout.
Regarding `Cc1cc(-c2cc3c(cc2F)COB3O)c(C#N)o1` [Compound 56], the inhibition at 20 ppm in data set [1], in data set [12], in data set [3], in data set [5] and in [10] was at least 80% in each case. Also, the pest or weed control at 200 ppm in data set [2], in [4] and in data set [14] was at least 80% each time.
`COc1c(-c2nnco2)ccc2c1B(O)OC2` [Compound 93] registered a melting point of 176 to 178 °C. In data set [1], the inhibition at 20 ppm is at least 80%. Also, the pest or weed control at 200 ppm in data set [4] was at least 80%. In addition, in data set [5], the inhibition at 20 ppm was at least 80%. In addition, the inhibition at 20 ppm in [9] was at least 80%. Further, the inhibition at 20 ppm in data set [10] was at least 80%.
For the compound `OB1OCc2cc(F)c(-c3ncon3)cc21` [Compound 97], the melting point was 226 to 228 °C. For the same compound, the inhibition at 20 ppm in data set [1] is at least 80%. In addition, the inhibition at 20 ppm in [12] is at least 80%. In addition, the inhibition at 20 ppm in data set [6] was at least 80%. Besides, the inhibition at 20 ppm in data set [7] was at least 80%. Further, the inhibition at 20 ppm in data set [3] is at least 80%. Also, the pest or weed control at 200 ppm in data set [4] was at least 80%. For the same compound, the inhibition at 20 ppm in data set [5] was at least 80%. Further, in data set [13], the inhibition at 20 ppm is at least 80%. Further, the inhibition at 20 ppm in data set [11] is at least 80%. Further, in data set [8], the pest or weed control at 200 ppm was at least 80%. The inhibition at 20 ppm in [9] was at least 80%. Besides, in data set [10], the inhibition at 20 ppm is at least 80%.
Regarding `OB1OCc2cc(F)c(-c3nnco3)cc21` [Compound 95], the melting point was in the range of 237 to 239 °C. In addition, the inhibition at 20 ppm in data set [1] is at least 80%. Moreover, the inhibition at 20 ppm in data set [7] was at least 80%. The pest or weed control at 200 ppm in data set [4] was at least 80%. For the same compound, the inhibition at 20 ppm in data set [5] is at least 80%. In data set [9], the inhibition at 20 ppm is at least 80%. Besides, in data set [10], the inhibition at 20 ppm was at least 80%.
Regarding `Cc1noc(-c2cc3c(cc2F)COB3O)n1` [Compound 30, 5-(5-fluoro-1-hydroxy-3H-2,1-benzoxaborol-6-yl)-3-methyl-1,2,4-oxadiazole], the melting point was 200 to 202 °C. Further, the inhibition at 20 ppm in data set [1] is at least 80%. The inhibition at 20 ppm in data set [6] is at least 80%. The inhibition at 20 ppm in data set [7] is at least 80%. In data set [3], the inhibition at 20 ppm is at least 80%. Moreover, the pest or weed control at 200 ppm in data set [4] was at least 80%. In addition, the inhibition at 20 ppm in [5] was at least 80%. For the same compound, in data set [13], the inhibition at 20 ppm is at least 80%. In data set [9], the inhibition at 20 ppm is at least 80%. Moreover, in data set [10], the inhibition at 20 ppm is at least 80%.

The values are drawn from patent US10314308B2, “Microbiocidal benzoxaboroles” (SYNGENTA PARTICIPATIONS AG, priority 2015, dated 2019).
